Measured values reported in patent publication US20240415801A1, “Methods and Compositions for Treating Fibroids” (Lundquist Institute for Biomedical Innovation at …, priority 2023, published 2024).

Assay: Blood chemistry panel (Example 1)
Format: in vivo, SCID/Beige mice
Conditions: 20 mg/kg daily i.p.
Protocol: After 8 weeks of treatment with either the vehicle or Bay, plasma chemistry was analyzed. Specifically, 100 μL of plasma was transferred into the Comprehensive Diagnostic Profile Rotor (#500-1038, Abaxis, Union City, CA, USA). Subsequently, the levels of glucose, creatinine, BUN, phosphorus, sodium, albumin, alkaline phosphatase, serum glutamic pyruvic transaminase (SGPT; ALT), total protein, globulin, total bilirubin, and amylase were assessed using the VetScan VS2 chemistry analyzer (Abaxis, Union City, CA, USA) as previously described.

## Cc1ccc(S(=O)(=O)/C=C/C#N)cc1 [Bay 11-7082]
8 weeks
  changes in blood chemistry including liver, kidney and pancreatic function: no changes
Plasma after 8 weeks
  Albumin (mean ± SEM): 3.5 ± 0.14 g/dL
  Alkaline phosphatase (mean ± SEM): 91.9 ± 20.05 U/l
  Amylase (mean ± SEM): 643.0 ± 36.82 U/l
  BUN (mean ± SEM): 27.1 ± 5.75 mg/dL
  Creatinine (mean ± SEM): 0.4 ± 0.03 mg/dL
  Globulin (mean ± SEM): 1.1 ± 0.24 g/dL
  Glucose (mean ± SEM): 261.0 ± 14.63 mg/dL
  Phosphorus (mean ± SEM): 10.1 ± 0.53 mg/dL
  SGPT (ALT) (mean ± SEM): 54.5 ± 8.71 U/l
  Sodium (mean ± SEM): 155.3 ± 1.35 mEq/l
  Total bilirubin (mean ± SEM): 0.3 ± 0.04 mg/dL
  Total protein (mean ± SEM): 4.6 ± 0.16 g/dL
